Measured values from PubChem BioAssay AID330 (DTP/NCI, 2004).
Where “and” joins values, the source holds several entries; their conditions need not be identical. Equal values may be shown once. Toxic doses and inconclusive results are not listed. The calls were made as follows: active = survival T/C of 150% or more; inactive = T/C below 125% in these data.

Test system: P388 leukemia ip, CD2F1 mice, survival T/C
Assay: NCI In Vivo Anticancer Drug Screen. Data for tumor model P388 Leukemia (intraperitoneal) in CD2F1 (CDF1) mice
Conditions: endpoint: median survival time, higher = longer survival
Procedure, shortened: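 Mice carrying the transplanted tumor received test compound or vehicle. Survival was recorded in each group, and the value is the treated-group measurement divided by that of the vehicle-treated control group.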

[1] = dose: 25.0 mg/kg/injection, schedule: Q01DX005 (ip), vehicle: Klucel (hydroxypropylcellulose) (HPC)
[2] = dose: 60.0 mg/kg/injection, schedule: Q01DX005 (ip), vehicle: Klucel (hydroxypropylcellulose) (HPC)
[3] = dose: 120.0 mg/kg/injection, schedule: Q01DX005 (ip), vehicle: Klucel (hydroxypropylcellulose) (HPC)
[4] = dose: 240.0 mg/kg/injection, schedule: Q01DX005 (ip), vehicle: Klucel (hydroxypropylcellulose) (HPC)
[5] = dose: 100.0 mg/kg/injection, schedule: Q04DX003 (ip), vehicle: saline with Tween-80
[6] = dose: 200.0 mg/kg/injection, schedule: Q04DX003 (ip), vehicle: saline with Tween-80
[7] = dose: 6.25 mg/kg/injection, schedule: Q01DX009 (ip), vehicle: Klucel (hydroxypropylcellulose) (HPC)
[8] = dose: 12.5 mg/kg/injection, schedule: Q01DX009 (ip), vehicle: Klucel (hydroxypropylcellulose) (HPC)
[9] = dose: 25.0 mg/kg/injection, schedule: Q01DX009 (ip), vehicle: Klucel (hydroxypropylcellulose) (HPC)
[10] = dose: 60.0 mg/kg/injection, schedule: Q01DX005 (ip), vehicle: saline with Tween-80
[11] = dose: 120.0 mg/kg/injection, schedule: Q01DX005 (ip), vehicle: saline with Tween-80
[12] = dose: 240.0 mg/kg/injection, schedule: Q01DX005 (ip), vehicle: saline with Tween-80
[13] = dose: 25.0 mg/kg/injection, schedule: Q01DX009 (ip), vehicle: saline with Tween-80
[14] = dose: 50.0 mg/kg/injection, schedule: Q01DX009 (ip), vehicle: saline with Tween-80
[15] = dose: 100.0 mg/kg/injection, schedule: Q01DX009 (ip), vehicle: saline with Tween-80
[16] = dose: 50.0 mg/kg/injection, schedule: Q01DX009 (ip), vehicle: Klucel (hydroxypropylcellulose) (HPC)
[17] = dose: 50.0 mg/kg/injection, schedule: Q01DX005 (ip), vehicle: Klucel (hydroxypropylcellulose) (HPC)
[18] = dose: 100.0 mg/kg/injection, schedule: Q01DX005 (ip), vehicle: Klucel (hydroxypropylcellulose) (HPC)

Measured: T/C

COC(=O)C1=C2Nc3ccccc3C23CCN2C(O)C4(CC5CC67CCOC6CCN6CCC8(c9cccc(OC)c9N(C4)C58O)C67)C4OCCC4(C1)C23 (stereo not given)
inactive: dose: 3.12 mg/kg/injection, schedule: Q01DX005 (ip), vehicle: Klucel (hydroxypropylcellulose) (HPC) 96 % of control | dose: 6.25 mg/kg/injection, schedule: Q01DX005 (ip), vehicle: Klucel (hydroxypropylcellulose) (HPC) 99 % of control | dose: 12.5 mg/kg/injection, schedule: Q01DX005 (ip), vehicle: Klucel (hydroxypropylcellulose) (HPC) 99 % of control | [1] 87 % of control and 89 % of control

Cc1cc(-n2c(C)nc3ccccc3c2=O)on1
inactive: [2] 101 % of control | [3] 93 % of control | [4] 104 % of control

COC1/C=C/OC2(C)Oc3c(C)c(O)c4c(O)c(c(C5OCCO5)c(O)c4c3C2=O)NC(=O)/C(C)=C\C=C\C(C)C(O)C(C)C(O)C(C)C(OC(C)=O)C1C (stereo not given)
inactive: dose: 25.0 mg/kg/injection, schedule: Q04DX003 (ip), vehicle: saline with Tween-80 96 % of control | dose: 50.0 mg/kg/injection, schedule: Q04DX003 (ip), vehicle: saline with Tween-80 96 % of control | [5] 96 % of control | [6] 104 % of control

CS(=O)(=O)N1CC=CCS1=O (stereo not given)
inactive: [7] 103 % of control | [8] 108 % of control | [9] 108 % of control

Cc1ccc(S(=O)(=O)c2cnc(N)nc2N)cc1
inactive: dose: 100.0 mg/kg/injection, schedule: Q01DX001 (ip), vehicle: saline 98 % of control | dose: 200.0 mg/kg/injection, schedule: Q01DX001 (ip), vehicle: saline 95 % of control | dose: 400.0 mg/kg/injection, schedule: Q01DX001 (ip), vehicle: saline 95 % of control

Nc1ncn[nH]1
inactive: dose: 50.0 mg/kg/injection, schedule: Q01DX009 (ip), vehicle: saline 99 % of control and 105 % of control | dose: 100.0 mg/kg/injection, schedule: Q01DX009 (ip), vehicle: saline 98 % of control and 97 % of control | dose: 200.0 mg/kg/injection, schedule: Q01DX009 (ip), vehicle: saline 100 % of control and 106 % of control | dose: 400.0 mg/kg/injection, schedule: Q01DX009 (ip), vehicle: saline 99 % of control

CC(C)NCCCNC(=O)C1COc2ccccc2O1 (stereo not given)
inactive: dose: 50.0 mg/kg/injection, schedule: Q01DX005 (ip), vehicle: saline 94 % of control | dose: 100.0 mg/kg/injection, schedule: Q01DX005 (ip), vehicle: saline 88 % of control | dose: 200.0 mg/kg/injection, schedule: Q01DX005 (ip), vehicle: saline 90 % of control

COC(=O)c1c2c(cc3nc4ccccc4nc13)OCO2
inactive: [10] 96 % of control | [11] 97 % of control | [12] 90 % of control

COC(=O)c1cccc2c1N(C)c1c(cccc1C(=O)OC)CC2
inactive: dose: 50.0 mg/kg/injection, schedule: Q01DX009 (ip), vehicle: distilled water + Tween-80 + alcohol 93 % of control | dose: 100.0 mg/kg/injection, schedule: Q01DX009 (ip), vehicle: distilled water + Tween-80 + alcohol 94 % of control | dose: 200.0 mg/kg/injection, schedule: Q01DX009 (ip), vehicle: distilled water + Tween-80 + alcohol 99 % of control

Nc1nc2c(c(=O)[nH]1)NC(CCNc1ccc(C(=O)NC(CCC(=O)O)C(=O)O)cc1)CN2 (stereo not given)
inactive: [13] 100 % of control | [14] 104 % of control and 118 % of control | dose: 100.0 mg/kg/injection, schedule: Q01DX009 (ip), vehicle: saline sonified 113 % of control | [15] 122 % of control

CCCCCCCCCCCCCCCCCCNCCC#N
inactive: [8] 101 % of control | [9] 98 % of control and 100 % of control | [16] 98 % of control and 89 % of control (2×) | dose: 100.0 mg/kg/injection, schedule: Q01DX009 (ip), vehicle: Klucel (hydroxypropylcellulose) (HPC) 99 % of control and 87 % of control

CN1C2CCC1C(O)C(c1ccc(Cl)cc1)C2 (stereo not given)
inactive: [1] 100 % of control | [17] 100 % of control | [18] 91 % of control

C=CCCc1c(OC)cccc1C1=NC(C)(C)CO1
inactive: dose: 50.0 mg/kg/injection, schedule: Q01DX005 (ip), vehicle: saline with Tween-80 106 % of control | dose: 100.0 mg/kg/injection, schedule: Q01DX005 (ip), vehicle: saline with Tween-80 102 % of control | dose: 200.0 mg/kg/injection, schedule: Q01DX005 (ip), vehicle: saline with Tween-80 100 % of control

Cc1ccc(C(=O)Cc2ccc(C#N)cc2)cc1
inactive: [13] 99 % of control | [14] 118 % of control | [15] 108 % of control | dose: 200.0 mg/kg/injection, schedule: Q01DX009 (ip), vehicle: saline with Tween-80 99 % of control

CC(C)OC(=O)Cn1c(=O)c2nnnn2c2ccccc21
inactive: dose: 100.0 mg/kg/injection, schedule: Q04DX002 (ip), vehicle: Klucel (hydroxypropylcellulose) (HPC) 93 % of control | dose: 200.0 mg/kg/injection, schedule: Q04DX002 (ip), vehicle: Klucel (hydroxypropylcellulose) (HPC) 98 % of control | dose: 400.0 mg/kg/injection, schedule: Q04DX002 (ip), vehicle: Klucel (hydroxypropylcellulose) (HPC) 93 % of control

CN(C)c1ccc(/C=N\N=C/c2ccc(N(C)C)cc2)cc1
inactive: [2] 88 % of control | [3] 87 % of control | [4] 86 % of control

CCC1S(=O)(=O)OCCOS1(=O)=O
inactive: dose: 7.5 mg/kg/injection, schedule: Q01DX005 (ip), vehicle: Klucel (hydroxypropylcellulose) (HPC) 106 % of control | dose: 15.0 mg/kg/injection, schedule: Q01DX005 (ip), vehicle: Klucel (hydroxypropylcellulose) (HPC) 106 % of control and 107 % of control and 116 % of control | dose: 30.0 mg/kg/injection, schedule: Q01DX005 (ip), vehicle: Klucel (hydroxypropylcellulose) (HPC) 109 % of control and 112 % of control and 120 % of control

CC1(C)CCCC2(C)C1CCC1(C)OC(/C(C=O)=C/C=O)CC12 (stereo not given)
inactive: dose: 40.0 mg/kg/injection, schedule: Q01DX009 (ip), vehicle: Klucel (hydroxypropylcellulose) (HPC) 112 % of control | dose: 80.0 mg/kg/injection, schedule: Q01DX009 (ip), vehicle: Klucel (hydroxypropylcellulose) (HPC) 105 % of control

COc1ccccc1N1C(=S)N(c2cccc(Cl)c2Cl)C(=O)C(N=Nc2ccc(Br)cc2)C1O (stereo not given)
inactive: dose: 100.0 mg/kg/injection, schedule: Q01DX001 (ip), vehicle: Klucel (hydroxypropylcellulose) (HPC) 100 % of control | dose: 200.0 mg/kg/injection, schedule: Q01DX001 (ip), vehicle: Klucel (hydroxypropylcellulose) (HPC) 99 % of control | dose: 400.0 mg/kg/injection, schedule: Q01DX001 (ip), vehicle: Klucel (hydroxypropylcellulose) (HPC) 96 % of control

O=[N+]([O-])c1cc2[nH]cnc2c([N+](=O)[O-])c1Nc1ccccc1
inactive: [5] 102 % of control | [6] 93 % of control | dose: 400.0 mg/kg/injection, schedule: Q04DX003 (ip), vehicle: saline with Tween-80 101 % of control

COC1OC(CS[As](C)C)C(O)C(O)C1O (stereo not given)
inactive: [7] 95 % of control | [8] 100 % of control | [9] 103 % of control | [16] 106 % of control

CC(=O)CCC12CCC(=O)N1Cc1ccccc1C2=O (stereo not given)
inactive: [10] 106 % of control | [11] 123 % of control | [12] 106 % of control

CCOC(=O)Cc1oc2c(C(C)=O)c(O)c(C)c(O)c2c1C
inactive: [17] 88 % of control | [18] 89 % of control | dose: 200.0 mg/kg/injection, schedule: Q01DX005 (ip), vehicle: Klucel (hydroxypropylcellulose) (HPC) 87 % of control
